Results on four molecules are retold here after ChEMBL document CHEMBL1201862, “PubChem BioAssay data set” (2004).

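Each compound was tested at five concentrations against cells in 96-well plates for 48 hours. At the GI50, growth is halved.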 The source made the active and inactive calls. Cut-off read from the data, not from the text of the source: active = GI50 up to about 1.1 µM and inactive = higher.

Test systems include M14; CCRF-CEM; HCT-116; NCI-H226; SF-268; PC-3; SK-MEL-5; OVCAR-4; HCT-15; MCF7; SNB-19; NCI-H522; NCI/ADR-RES; UO-31; OVCAR-5; ACHN; SF-295; K562; IGROV-1; MDA-MB-435.
Experiment in all cases: inhibition of tumour cell growth, NCI panel, 48 h

With `CSC1=C(C)S/C(=C\c2ccc(/C=C3\SC(C)=C(SC)S3)cc2)S1`, the GI50 with M14 was > 100 µM (inactive); with CCRF-CEM it was > 100 µM (inactive); in the assay on HCT-116, > 100 µM (inactive); in the assay on NCI-H226 it was 92.5 µM (inactive); in the assay on SF-268 it was > 100 µM (inactive); with PC-3, > 100 µM (inactive). Further, the GI50 is > 100 µM (inactive) in the assay on SK-MEL-5; > 100 µM (inactive) with OVCAR-4; greater than 100000 nM with HCT-15; > 100 µM (inactive) in the assay with MCF7; > 100 µM (inactive) in the assay on SNB-19; > 100 µM (inactive) in the assay with NCI-H522. Besides, the GI50 with NCI/ADR-RES is > 100 µM (inactive); in the assay on UO-31, > 100 µM (inactive); in the assay on OVCAR-5, > 100 µM (inactive); in the assay with ACHN it was > 100 µM (inactive); with SF-295, 88.9 µM (inactive); in the assay with K562, > 100 µM (inactive). For the same molecule, the GI50 in the assay on IGROV-1 and with MDA-MB-435 was > 100 µM (inactive) each time.

As for `O=C(O)c1nc2cc(C(F)(F)F)ccc2[nH]c1=O`, the GI50 in the assay on M14, in the assay with CCRF-CEM, in the assay with HCT-116, in the assay on NCI-H226, with SF-268 and with PC-3 was > 100 µM (inactive) in each case. Also, the GI50 in the assay on SK-MEL-5 was > 100 µM (inactive); in the assay on OVCAR-4 it was > 100 µM (inactive); with HCT-15, greater than 100000 nM; in the assay with MCF7, > 100 µM (inactive); with SNB-19, > 100 µM (inactive); with NCI-H522, > 100 µM (inactive). Also, the GI50 is > 100 µM (inactive) in the assay on NCI/ADR-RES; 60.8 µM (inactive) in the assay on UO-31; > 100 µM (inactive) in the assay on OVCAR-5; > 100 µM (inactive) with ACHN; > 100 µM (inactive) with SF-295; > 100 µM (inactive) in the assay with K562. The GI50 in the assay with IGROV-1 and with MDA-MB-435 was > 100 µM (inactive) throughout.

For the molecule `O=C1CCCc2cc3c(cc21)CC1(C3)Cc2cc3c(cc2C1)C(=O)CCC3`, the GI50 with M14 was 0.536 µM (active); in the assay on CCRF-CEM, 0.998 µM (active); in the assay on HCT-116, 0.706 µM (active); in the assay on NCI-H226, 2.7 µM (inactive); in the assay on SF-268, 3.37 µM (inactive); with PC-3, 1.24 µM (inactive). For the same molecule, the GI50 in the assay with SK-MEL-5 is 0.532 µM (active); with OVCAR-4, 4.43 µM (inactive); in the assay with HCT-15, 662 nM; in the assay on MCF7, 0.484 µM (active); in the assay with SNB-19, 4.58 µM (inactive); in the assay on NCI-H522, 0.679 µM (active). In addition, the GI50 in the assay with NCI/ADR-RES is 0.769 µM (active); in the assay on UO-31, 5.55 µM (inactive); in the assay on OVCAR-5, 4.54 µM (inactive); in the assay on ACHN, 2.86 µM (inactive); in the assay on SF-295, 0.923 µM (active); in the assay with K562 it was 0.396 µM (active). Besides, the figures for the GI50 in the assay with IGROV-1 and in the assay on MDA-MB-435 were 1.38 µM (inactive) and 0.231 µM (active), respectively.

For the molecule `CC(C)(C)NCc1cc(Nc2ccnc3cc(Cl)ccc23)cc(-c2ccc(Cl)cc2)c1O`, the GI50 in the assay on M14 was 2.18 µM (inactive); in the assay on CCRF-CEM, 0.809 µM (active); in the assay on HCT-116 it was 2.08 µM (inactive); in the assay on NCI-H226 it was 6.12 µM (inactive); in the assay with SF-268, 3.48 µM (inactive); with PC-3, 1.99 µM (inactive). For the same molecule, the GI50 is 1.77 µM (inactive) with SK-MEL-5; 3.36 µM (inactive) in the assay with OVCAR-4; 2440 nM in the assay on HCT-15; 1.6 µM (inactive) with MCF7; 4.44 µM (inactive) with SNB-19; 3.65 µM (inactive) with NCI-H522. In addition, the GI50 in the assay on NCI/ADR-RES is 3.05 µM (inactive); with UO-31 it was 4.17 µM (inactive); in the assay with OVCAR-5, 4.68 µM (inactive); with ACHN, 4.29 µM (inactive); with SF-295, 2.5 µM (inactive); in the assay with K562 it was 1.04 µM (active). Also, the GI50 in the assay with IGROV-1 was 2.02 µM (inactive); in the assay with MDA-MB-435 it was 1.91 µM (inactive).
